Measured values reported in patent publication US20200268762A1, “7-SUBSTITUTED SULFONIMIDOYLPURINONE COMPOUNDS AND DERIVATIVES FOR THE TREATMENT AND PROPHYLAXIS OF LIVER CANCER” (Hoffmann-La Roche Inc., priority 2019, published 2020).
Converted amounts (≈) assume the structure as drawn. Like-named read-outs stand apart in the source and are kept apart here.

Columns and labels:
[1] = LYSA solubility study; format: physicochemical; conditions: for LYSA of Active Forms: 0.05 M phosphate buffer pH 6.5; for solubility thermodynamic: 0.05 M phosphate buffer, pH 6.5, aqueous buffer, thermodynamic from solid
Protocol: LYSA study is used to determine the aqueous solubility of tested compounds. Samples were prepared in duplicate from 10 mM DMSO stock solution. After evaporation of DMSO with a centrifugal vacuum evaporator, the compounds were dissolved in 0.05 M phosphate buffer (pH 6.5), stirred for one hour and shaken for two hours. After one night, the solutions were filtered using a microtiter filter plate. Then the filtrate and its 1/10 dilution were analyzed by HPLC-UV. […] The results were in μg/mL. In case the percentage of sample measured in solution after evaporation divided by the calculated maximum of sample amount was bigger than 80%, the solubility was reported as bigger than this value.

[2] = tested on: cell lines originating from hepatocellular carcinoma and cholangiocarcinoma; experiment: Direct treatment of tumor cell lines, cell counts by nuclei imaging; format: cell-based; conditions: 27 μM down to 270 pM, 72, 120 and 148 hours, relative to DMSO control
Protocol: Cell lines derived from hepatocellular carcinoma and cholangiocarcinoma (EGI1 and OZ) were maintained and tested in the following media: Huh7 and EGI1 were cultured in DMEM 4.5 g/L glucose (Gibco, Cat #31966-021), 10% FCS (GIBCO, Cat #10500-064 Lot 07G3690K), 2 mM L-glutamine (Thermo Fischer, Cat #25030081), 1 mM sodium pyruvate (GIBCO Cat #11360-039). Hep3B and HepG2 were cultivated in Eagles MEM+Earle's BSS (PAN, Cat # P04-08510), 10% FCS, 2 mM L-glutamine, 0.1 mM NEAA (PAN Cat # P08-32100) and 1 mM sodium pyruvate. JHH1, JHH5, JHH6 and OZ were cultivated in Williams'E (PAN Cat # P04-29050), 10% FCS and 2 mM L-glutamine. JHH2 was cultivated using Williams'E, 10% FCS and 2 mM L-glutamine. HLE was cultivated in DMEM 4.5 g/L glucose, 10% FCS and 2 mM L-glutamine. HLF was cultivated in DMEM 4.5 g/L glucose, 5% FCS, 0.1 mM NEAA and 2 mM L-glutamine. JHH4 was cultivated in Eagles MEM+Earle's BSS, 10% FCS and 2 mM L-glutamine. SkHep1 was cultivated in Eagles MEM+Earle's BSS, 10% FCS, 2 mM L-glutamine, 0.1 mM NEAA and 1 mM sodium pyruvate. SNU449 was cultivated using RPMI 1640 (PAN Cat # P04-18047) 10% FCS and 2 mM L-glutamine. […]
Tumor cell counts were determined using Perkin Elmer Operetta Imaging System and Harmony Software by counting nuclei stained for 20 minutes in full media using Hoechst33342 dye (2 μg/ml, Sigma Cat # B2261). […]

[3] = biological target: T1, human TLR7 (Homo sapiens, UniProt Q9NYK1); experiment: HEK293-Blue-hTLR-7 cells assay (SEAP reporter); format: cell-based; conditions: for EC50: SEAP reporter, 20 hrs
T1 sequence (Q9NYK1 27-1049): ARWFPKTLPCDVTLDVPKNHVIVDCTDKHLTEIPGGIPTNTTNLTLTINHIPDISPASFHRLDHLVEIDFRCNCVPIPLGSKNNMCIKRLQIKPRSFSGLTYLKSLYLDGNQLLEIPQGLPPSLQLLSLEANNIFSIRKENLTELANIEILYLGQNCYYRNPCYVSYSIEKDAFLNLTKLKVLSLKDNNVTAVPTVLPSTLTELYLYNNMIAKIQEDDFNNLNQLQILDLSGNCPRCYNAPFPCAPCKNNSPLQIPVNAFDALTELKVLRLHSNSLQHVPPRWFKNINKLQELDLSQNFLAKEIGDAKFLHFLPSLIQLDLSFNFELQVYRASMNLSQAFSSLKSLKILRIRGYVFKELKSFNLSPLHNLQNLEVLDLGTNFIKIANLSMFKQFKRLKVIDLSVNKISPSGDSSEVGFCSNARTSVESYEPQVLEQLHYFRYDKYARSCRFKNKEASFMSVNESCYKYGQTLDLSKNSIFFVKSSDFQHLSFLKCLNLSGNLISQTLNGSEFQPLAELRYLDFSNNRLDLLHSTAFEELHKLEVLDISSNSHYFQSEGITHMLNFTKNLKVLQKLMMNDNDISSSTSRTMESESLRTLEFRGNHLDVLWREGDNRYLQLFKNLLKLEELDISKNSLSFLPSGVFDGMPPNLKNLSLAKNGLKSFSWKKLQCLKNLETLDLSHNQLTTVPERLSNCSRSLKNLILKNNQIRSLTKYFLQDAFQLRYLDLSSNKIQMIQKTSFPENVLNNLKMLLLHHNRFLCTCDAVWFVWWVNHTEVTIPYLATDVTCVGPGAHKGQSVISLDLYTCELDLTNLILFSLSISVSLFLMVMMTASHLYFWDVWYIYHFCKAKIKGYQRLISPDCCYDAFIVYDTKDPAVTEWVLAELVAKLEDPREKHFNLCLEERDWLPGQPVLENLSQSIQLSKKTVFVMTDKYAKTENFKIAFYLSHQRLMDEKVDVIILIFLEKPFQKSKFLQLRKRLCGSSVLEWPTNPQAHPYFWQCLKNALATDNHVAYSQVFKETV
Description: HEK293-Blue-hTLR-7 cells assay: A stable HEK293-Blue-hTLR-7 cell line was purchased from InvivoGen (Cat. #: hkb-htlr7, San Diego, Calif., USA). These cells were designed for studying the stimulation of human TLR7 by monitoring the activation of NF-κB. A SEAP (secreted embryonic alkaline phosphatase) reporter gene was placed under the control of the IFN-β minimal promoter fused to five NF-κB and AP-1-binding sites. The SEAP was induced by activating NF-κB and AP-1 via stimulating HEK-Blue hTLR7 cells with TLR7 ligands. Therefore the reporter expression was regulated by the NF-κB promoter upon stimulation of human TLR7 for 20 hrs. The cell culture supernatant SEAP reporter activity was determined using QUANTI-Blue™ kit (Cat. #: rep-qbl, Invivogen, San Diego, Ca, USA) at a wavelength of 640 nm, a detection medium that turns purple or blue in the presence of alkaline phosphatase. […] Then 20 μL of the supernatant from each well was incubated with 180 μL Quanti-blue substrate solution at 37° C. for 2 hrs and the absorbance was read at 620-655 nm using a spectrophotometer. The signalling pathway that TLR7 activation leads to downstream NF-κB activation has been widely accepted, and therefore similar reporter assay was also widely used for evaluating TLR7 agonist (Tsuneyasu Kaisho and Takashi Tanaka, Trends in Immunology, Volume 29, Issue 7, July 2008, […]; Hiroaki Hemmi et al, Nature Immunology 3, 196-200 (2002)). The Compounds and Examples of the present invention were tested in HEK293-hTLR-7 assay for their TLR7 agonism activity as described herein and results are listed in Table 1. […] The calculated ratio of EC50(prodrug)/EC50(active form) were within the range from 32 to about 7600.

[4] = tested on: iAST mouse model of hepatocellular carcinoma; experiment: iAST mouse model of hepatocellular carcinoma, tumor burden; conditions: iAST mice, Sorafenib 90 mg/kg daily
Protocol: Per group n=10 were analyzed by One-way ANOVA and Tukey correction shown as individual dots with means±SEM using GraphPad Prism software version 6.

[5] = tested on: immune cell infiltrate in iAST tumor; experiment: Leukocyte infiltrate of iAST tumors by flow cytometry; format: in vivo, mouse; conditions: day 12 after treatment start
Protocol: Tumors from iAST mice were treated as described in FIG. 1. […] For flow cytometry, tumors were excised and single cell suspensions obtained by mechanical processing and enzymatic digestion (DNAse 0.01%, Collagenase IV 1 mg/ml). Staining procedures started with Fc receptor blocking using 2.4G2 antibody clone (1:200 dilution, BD Bioscience), and the following antibodies (clones) were used to analyzed leukocyte infiltrate: CD45-FITC (30-F11, BioLegend) and CD11b-BUV737 (M1/70, BD Bioscience). Samples were acquired using a LSR Fortessa machine (BD Bioscience) and analyzed by FlowJo version 10 (Treestar).

[6] = corresponding active form, read-out: HEK293-hTLR-7 EC50 (Active form)

SMILES: CCCS(=N)(=O)c1nc(N)c2[nH]c(=O)n(Cc3ccccc3)c2n1 (single isomer, unassigned) [Compound 1e-A, 6-amino-9-benzyl-2-(propylsulfonimidoyl)-7H-purin-8-one]
- LYSA of Active Forms [1]: 56 µg/mL

SMILES: CCCS(=N)(=O)c1nc(N)c2[nH]c(=O)n(Cc3ccccc3)c2n1 (single isomer, unassigned) [Compound 1e-B, 6-amino-9-benzyl-2-(propylsulfonimidoyl)-7H-purin-8-one]
- solubility thermodynamic ([1]; read-out: LYSA of Active Forms): 50 µg/mL (≈ 144 µM)

SMILES: CCCS(=N)(=O)c1nc(N)c2[nH]c(=O)n(Cc3ccc(C)cc3)c2n1 (single isomer, unassigned) [Compound 36g-A, 6-Amino-2-(propylsulfonimidoyl)-9-(p-tolylmethyl)-7H-purin-8-one]
- solubility thermodynamic ([1]; read-out: LYSA of Active Forms): 6 µg/mL (≈ 16.6 µM)

SMILES: CCCS(=N)(=O)c1nc(N)c2[nH]c(=O)n(Cc3ccc(C)cc3)c2n1 (single isomer, unassigned) [Compound 36g-B, 6-Amino-2-(propylsulfonimidoyl)-9-(p-tolylmethyl)-7H-purin-8-one]
- LYSA of Active Forms [1]: 11 µg/mL

SMILES: CC[S@@](=N)(=O)c1nc(N)c2[nH]c(=O)n(Cc3ccc(Cl)cc3)c2n1 (single isomer, unassigned) [Compound 41c-B, 6-amino-9-[(4-chlorophenyl)methyl]-2-(ethylsulfonimidoyl)-7H-purin-8-one]
- tumor cell proliferation upon direct treatment [2]: None of the cell lines tested showed a significant increase in proliferation
- tumor cell proliferation upon direct treatment ([2]; listed as compound 41c-B): does not induce enhanced tumor cell proliferation

SMILES: CC[S@@](=N)(=O)c1nc(N)c2[nH]c(=O)n(Cc3ccc(Br)cc3)c2n1 (single isomer, unassigned) [Compound 47e-A, 6-Amino-9-[(4-bromophenyl)methyl]-2-(ethylsulfonimidoyl)-7H-purin-8-one]
- EC50 [3, 6]: 21 nM

SMILES: CC[S@@](=N)(=O)c1nc(N)c2[nH]c(=O)n(Cc3ccc(Br)cc3)c2n1 (single isomer, unassigned) [Compound 47e-B, 6-Amino-9-[(4-bromophenyl)methyl]-2-(ethylsulfonimidoyl)-7H-purin-8-one]
- EC50 [3, 6]: 25 nM

SMILES: CCCN(C)C(=O)n1c(=O)n(Cc2ccc(Br)cc2)c2nc([S@](=N)(=O)CC)nc(N)c21 (single isomer, unassigned) [Example 47-A]
- EC50 ([3]; prodrug, read-out: HEK293-hTLR-7 EC50 (Prodrug)): 10900 nM
- solubility thermodynamic ([1]; read-out: LYSA of Prodrugs): 154 µg/mL (≈ 302 µM)

SMILES: CCC[S@](=N)(=O)c1nc(N)c2c(n1)n(Cc1ccc(C)cc1)c(=O)n2C(=O)N(C)CCOC [Example 38-A, 6-Amino-N-(2-methoxyethyl)-N-methyl-8-oxo-2-[S(S)-propylsulfonimidoyl]-9-(p-tolylmethyl)purine-7-carboxamide]
- Ratio (EC50(prodrug)/EC50(active form)) [3]: 1378.9

SMILES: CNC(=O)c1cc(Oc2ccc(NC(=O)Nc3ccc(Cl)c(C(F)(F)F)c3)cc2)ccn1 [Sorafenib, 4-{4-[3-(4-Chlor-3-trifluormethylphenyl)ureido]phenoxy}pyridin-2-carbonsäuremethylamid]
- efficacy in monotherapy (total liver and tumor weights) [4]: highly effective
- Examination of the liver for superficial tumor nodules (tumor nodule free) ([4]; day 12 after treatment start, 41-A 10 mg/kg once a week oral): 0/10 tumor nodule free
- overall lymphoid and myeloid composition of the tumors [5]: changes were clearly driven by Sorafenib
